{"source": "PubChem BioAssay (NCI)", "assay_in_all_cases": "DTP human tumour cell line panel, 48 h", "key": {"[1]": {"system": "786-0 renal"}, "[2]": {"system": "A498 renal"}, "[3]": {"system": "A549 NSCLC"}, "[4]": {"system": "ACHN renal"}, "[5]": {"system": "BT-549 breast"}, "[6]": {"system": "CAKI-1 renal"}, "[7]": {"system": "CCRF-CEM leukemia"}, "[8]": {"system": "COLO 205 colon"}, "[9]": {"system": "DU-145 prostate"}, "[10]": {"system": "EKVX NSCLC"}, "[11]": {"system": "HCC-2998 colon"}, "[12]": {"system": "HCT-116 colon"}, "[13]": {"system": "HCT-15 colon"}, "[14]": {"system": "HL-60(TB) leukemia"}, "[15]": {"system": "HOP-62 NSCLC"}, "[16]": {"system": "HOP-92 NSCLC"}, "[17]": {"system": "HS 578T breast"}, "[18]": {"system": "HT29 colon"}, "[19]": {"system": "IGROV1 ovarian"}, "[20]": {"system": "K-562 leukemia"}, "[21]": {"system": "KM12 colon"}, "[22]": {"system": "LOX IMVI melanoma"}, "[23]": {"system": "M14 melanoma"}, "[24]": {"system": "MALME-3M melanoma"}, "[25]": {"system": "MCF7 breast"}, "[26]": {"system": "MDA-MB-231 breast"}, "[27]": {"system": "MDA-MB-435"}, "[28]": {"system": "MDA-MB-468 breast"}, "[29]": {"system": "MOLT-4 leukemia"}, "[30]": {"system": "NCI-H226 lung"}}, "note": "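Step 1: Grow cells in 96-well plates. Step 2: Expose to compound for 48 hours at 5 concentrations. Step 3: Interpolate endpoints linearly; if unreached, use highest concentration. The concentration for 50% growth inhibition is given as GI50. At the TGI there is no net growth.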", "data": [{"smiles": "Cn1cc(-c2cc(N)n3nc(-c4c[nH]c5ccccc45)cc3n2)c2cc(Cl)ccc21", "values": [{"measurement": "GI50", "setting": "[1]", "value": 1.6, "unit": "µM"}, {"measurement": "TGI", "setting": "[1]", "value": 3.2, "unit": "µM"}, {"measurement": "GI50", "setting": "[2]", "value": 10.1, "unit": "µM"}, {"measurement": "TGI", "setting": "[2]", "value": 22, "unit": "µM"}, {"measurement": "GI50", "setting": "[3]", "value": 3.15, "unit": "µM"}, {"measurement": "TGI", "setting": "[3]", "value": 13, "unit": "µM"}, {"measurement": "GI50", "setting": "[4]", "value": 2.98, "unit": "µM"}, {"measurement": "TGI", "setting": "[4]", "value": 10.6, "unit": "µM"}, {"measurement": "GI50", "setting": "[5]", "value": 16.9, "unit": "µM"}, {"measurement": "TGI", "setting": "[5]", "value": 31.9, "unit": "µM"}, {"measurement": "GI50", "setting": "[6]", "value": 2.96, "unit": "µM"}, {"measurement": "TGI", "setting": "[6]", "value": 12.4, "unit": "µM"}, {"measurement": "GI50", "setting": "[7]", "value": 3.22, "unit": "µM"}, {"measurement": "TGI", "setting": "[7]", "value": "> 100", "unit": "µM"}, {"measurement": "GI50", "setting": "[8]", "value": 2.17, "unit": "µM"}, {"measurement": "TGI", "setting": "[8]", "value": 4.26, "unit": "µM"}, {"measurement": "GI50", "setting": "[9]", "value": 5.69, "unit": "µM"}, {"measurement": "TGI", "setting": "[9]", "value": 22.5, "unit": "µM"}, {"measurement": "GI50", "setting": "[10]", "value": 2.8, "unit": "µM"}, {"measurement": "TGI", "setting": "[10]", "value": 12.5, "unit": "µM"}, {"measurement": "GI50", "setting": "[11]", "value": 1.8, "unit": "µM"}, {"measurement": "TGI", "setting": "[11]", "value": 3.41, "unit": "µM"}, {"measurement": "GI50", "setting": "[12]", "value": 1.84, "unit": "µM"}, {"measurement": "TGI", "setting": "[12]", "value": 3.5, "unit": "µM"}, {"measurement": "GI50", "setting": "[13]", "value": 1.72, "unit": "µM"}, {"measurement": "TGI", "setting": "[13]", "value": 3.29, "unit": "µM"}, {"measurement": "GI50", "setting": "[14]", "value": 2.91, "unit": "µM"}, {"measurement": "TGI", "setting": "[14]", "value": 13.7, "unit": "µM"}, {"measurement": "GI50", "setting": "[15]", "value": 2.84, "unit": "µM"}, {"measurement": "TGI", "setting": "[15]", "value": 10.8, "unit": "µM"}, {"measurement": "GI50", "setting": "[16]", "value": 2.73, "unit": "µM"}, {"measurement": "TGI", "setting": "[16]", "value": 9.96, "unit": "µM"}, {"measurement": "GI50", "setting": "[17]", "value": 4.06, "unit": "µM"}, {"measurement": "TGI", "setting": "[17]", "value": 24.3, "unit": "µM"}, {"measurement": "GI50", "setting": "[18]", "value": 1.76, "unit": "µM"}, {"measurement": "TGI", "setting": "[18]", "value": 3.43, "unit": "µM"}, {"measurement": "GI50", "setting": "[19]", "value": 3.61, "unit": "µM"}, {"measurement": "TGI", "setting": "[19]", "value": 14.6, "unit": "µM"}, {"measurement": "GI50", "setting": "[20]", "value": 2.27, "unit": "µM"}, {"measurement": "TGI", "setting": "[20]", "value": 5.68, "unit": "µM"}, {"measurement": "GI50", "setting": "[21]", "value": 2.55, "unit": "µM"}, {"measurement": "TGI", "setting": "[21]", "value": 6.63, "unit": "µM"}, {"measurement": "GI50", "setting": "[22]", "value": 1.71, "unit": "µM"}, {"measurement": "TGI", "setting": "[22]", "value": 3.08, "unit": "µM"}, {"measurement": "GI50", "setting": "[23]", "value": 2.15, "unit": "µM"}, {"measurement": "TGI", "setting": "[23]", "value": 4.93, "unit": "µM"}, {"measurement": "GI50", "setting": "[24]", "value": 3.93, "unit": "µM"}, {"measurement": "TGI", "setting": "[24]", "value": 14.3, "unit": "µM"}, {"measurement": "GI50", "setting": "[25]", "value": 1.65, "unit": "µM"}, {"measurement": "TGI", "setting": "[25]", "value": 3.58, "unit": "µM"}, {"measurement": "GI50", "setting": "[26]", "value": 1.9, "unit": "µM"}, {"measurement": "TGI", "setting": "[26]", "value": 3.61, "unit": "µM"}, {"measurement": "GI50", "setting": "[27]", "value": 3.69, "unit": "µM"}, {"measurement": "TGI", "setting": "[27]", "value": 13.4, "unit": "µM"}, {"measurement": "GI50", "setting": "[28]", "value": 1.89, "unit": "µM"}, {"measurement": "TGI", "setting": "[28]", "value": 4.59, "unit": "µM"}, {"measurement": "GI50", "setting": "[29]", "value": 1.87, "unit": "µM"}, {"measurement": "TGI", "setting": "[29]", "value": 5.24, "unit": "µM"}, {"measurement": "GI50", "setting": "[30]", "value": 14.1, "unit": "µM"}]}]}
